These results are taken from patent US20240132431A1, “METHOD FOR ALKYLATING ACIDIC FUNCTIONAL GROUP” (Chugai Seiyaku Kabushiki Kaisha, priority 2021, published 2024).

In the assay the target is T1, Bcl-2 protein (Recombinant Human Bcl-2 Protein) (Homo sapiens, UniProt P10415).
T1 construct: purchased Novus NBP2-34889
Kind of assay: Binding evaluation of mixture library compounds to Bcl-2 using AS-MS (affinity selection mass spectrometry). Particulars: for ASMS ratio (%) n = 1 / ASMS ratio (%) n = 2: ASMS Ratio(%)=(A−C)/B×100; for ASMS ratio (%) n = 1: replicate n = 1; for ASMS ratio (%) n = 2: replicate n = 2. In a few lines: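 Bcl-2 binding is scored from LC/MS signal retained with protein through gel-filtration spin columns, normalised to unfiltered and protein-free controls. Incubation: 20 μM protein, […] per compound, 1 h, 23° C.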

The mark [1] stands for this setting: AS-MS, mixture of 1200 compounds, Bcl-2.

T1 sequence (P10415 whole entry): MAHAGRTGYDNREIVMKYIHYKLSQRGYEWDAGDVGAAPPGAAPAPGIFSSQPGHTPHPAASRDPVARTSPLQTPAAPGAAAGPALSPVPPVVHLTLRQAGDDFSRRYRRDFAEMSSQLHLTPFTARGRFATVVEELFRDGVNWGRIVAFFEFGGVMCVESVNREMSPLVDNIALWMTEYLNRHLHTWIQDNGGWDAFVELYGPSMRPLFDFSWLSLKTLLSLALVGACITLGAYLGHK

In the case of `CCOc1cccc(-c2ccc(CN3CCN(c4ccc(C(=O)NS(=O)(=O)CCC(F)(F)F)cc4)CC3)cc2F)c1` [B2N051-01, 4-[4-[[4-(3-Ethoxyphenyl)-3-fluorophenyl]methyl]piperazin-1-yl]-N-(3,3,3-trifluoropropylsulfonyl)benzamide], the “ASMS ratio (%)” value (n = 1) is 0.0% and the “ASMS ratio (%)” value (n = 2) is 0.0%.

Regarding `CCOc1cncc(-c2ccc(C(=O)N3CCN(c4ccc(C(=O)NCC(F)(F)F)cc4)CC3)c3ccccc23)c1` [B1K036-01, 4-[4-[4-(5-Ethoxypyridin-3-yl)naphthalene-1-carbonyl]piperazin-1-yl]-N-(2,2,2-trifluoroethyl)benzamide], under setting [1], the “ASMS ratio (%) n = 1” value worked out at 1.1% and the “ASMS ratio (%) n = 2” value is on record as −0.4%. Regarding `CCOc1cncc(-c2ccc(CN3CCN(c4ccc(C(=O)N(CC)CC)nn4)CC3)c(OC)c2)c1` [B4J080-01], where the note is “AS-MS, mixture library, Bcl-2”, the “ASMS ratio (%) n = 1” value turned out to be 0.0% and the “ASMS ratio (%) n = 2” value was determined as 0.0%.

As to `CCOc1cncc(-c2cc(OC)c(CN3CCN(c4ccc(C(=O)Nc5ccc(OC)cc5)nn4)CC3)c(OC)c2)c1` [B1O086-01, 6-[4-[[4-(5-Ethoxypyridin-3-yl)-2,6-dimethoxyphenyl]methyl]piperazin-1-yl]-N-(4-methoxyphenyl)pyridazine-3-carboxamide], the “ASMS ratio (%) n = 2” value (AS-MS on the mixture of 1200 library compounds) is −0.4%. For `CCOc1cccc(C#Cc2cncc(C(=O)N3CCN(c4ccc(C(=O)NCC56CC7CC(CC(C7)C5)C6)cc4)CC3)c2)c1` [B1A031-01, N-(1-Adamantylmethyl)-4-[4-[5-[2-(3-ethoxyphenyl)ethynyl]pyridine-3-carbonyl]piperazin-1-yl]benzamide], under setting [1], the “ASMS ratio (%) n = 1” value is 6.9% and the “ASMS ratio (%) n = 2” value was −1.8%. As for `CCOc1cncc(-c2cc(CN3CCN(c4ccc(C(=O)NCC(F)(F)F)cc4)CC3)cc(OC(C)C)c2)c1` [B1K058-01, 4-[4-[[3-(5-Ethoxypyridin-3-yl)-5-propan-2-yloxyphenyl]methyl]piperazin-1-yl]-N-(2,2,2-trifluoroethyl)benzamide], under setting [1], the “ASMS ratio (%) n = 1” value is on record as 1.3% and the “ASMS ratio (%) n = 2” value is reported as 0.1%. `CCOc1cccc(-c2cc(C(=O)N3CCN(c4ccc(C(=O)NS(C)(=O)=O)nn4)CC3)cc(C(F)(F)F)c2)c1` [B2I017-01, 6-[4-[3-(3-Ethoxyphenyl)-5-(trifluoromethyl)benzoyl]piperazin-1-yl]-N-methylsulfonylpyridazine-3-carboxamide]: where the note is “AS-MS, mixture library, Bcl-2”, the “ASMS ratio (%) n = 1” value worked out at 0.0% and the “ASMS ratio (%) n = 2” value is 0.0%.

`CCOc1cncc(-c2csc(CN3CCN(c4ccc(C(=O)NS(=O)(=O)c5ccc(NCCSc6ccccc6)c([N+](=O)[O-])c5)nn4)CC3)c2)c1` [B2Q094-01, 6-[4-[[4-(5-Ethoxypyridin-3-yl)thiophen-2-yl]methyl]piperazin-1-yl]-N-[3-nitro-4-(2-phenylsulfanylethylamino)phenyl]sulfonylpyridazine-3-carboxamide]: where the note is “AS-MS, mixture library, Bcl-2”, the “ASMS ratio (%) n = 1” value is listed as 7.2% and the “ASMS ratio (%) n = 2” value stood at 2.5%.

For “6-[4-[[4-(3-Ethoxyphenyl)-3-methylphenyl]methyl]piperazin-1-yl]-N-propylpyridazine-3-carboxamide [B1M059-01]”, under setting [1], the “ASMS ratio (%) n = 1” value was −5.5% and the “ASMS ratio (%) n = 2” value is −7.2%. In the case of `CCOc1cccc(-c2ccc(CN3CCN(c4ccc(C(=O)NS(=O)(=O)c5ccc(NCCSc6ccccc6)c(C(F)(F)F)c5)cc4)CC3)cc2C)c1` [B2R047-01, 4-[4-[[4-(3-Ethoxyphenyl)-3-methylphenyl]methyl]piperazin-1-yl]-N-[4-(2-phenylsulfanylethylamino)-3-(trifluoromethyl)phenyl]sulfonylbenzamide], the “ASMS ratio (%)” value by setting is: (n = 1) 6.6%; (n = 2) −7.8%.
